{"source": "patent US10793580B2", "about": "“Substituted pyrazoloazepin-8-ones and their use as phosphodiesterase inhibitors” (LEO Pharma A/S, priority 2016, dated 2020)", "biological_target": "human PDE4D catalytic domain (Homo sapiens (Human), UniProt Q08499)", "sequence (Q08499 380-740)": "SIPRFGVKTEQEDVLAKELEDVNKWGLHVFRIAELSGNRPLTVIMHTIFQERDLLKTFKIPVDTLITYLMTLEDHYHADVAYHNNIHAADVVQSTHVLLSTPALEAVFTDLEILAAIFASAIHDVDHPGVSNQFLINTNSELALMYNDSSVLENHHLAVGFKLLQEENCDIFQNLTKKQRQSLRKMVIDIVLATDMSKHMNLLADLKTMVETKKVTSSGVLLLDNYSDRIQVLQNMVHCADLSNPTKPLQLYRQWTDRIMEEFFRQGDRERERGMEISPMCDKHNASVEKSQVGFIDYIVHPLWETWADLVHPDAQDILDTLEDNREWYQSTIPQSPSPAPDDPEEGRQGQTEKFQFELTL", "experiment": "PDE4 Assay (TR-FRET, FAM-cAMP cleavage)", "assay_type": "biochemical", "conditions": "human PDE4D catalytic domain (UniProt Q08499 [S380-L740]); 50% inhibition of substrate cleavage; read-out: PDE4 IC50 range", "method": "The human PDE4D catalytic domain (UniProt no. Q08499 [S380-L740]) was incubated with a mixture of non-labelled cAMP (cyclic adenosine monophosphate) and fluorescein amidite (FAM) conjugated cAMP and titrated test or reference Compound. Following brief incubation the enzymatic reaction was stopped by addition of binding buffer containing nanoparticles with immobilized trivalent metal ions capable of binding 1) AMP phospho groups and 2) terbium (Tb) donor fluorophores. Subsequent excitation of the Tb donor triggers time-resolved FRET to adjacent FAM acceptor molecules resulting in light emission. In the presence of a PDE4 inhibitor, AMP generation was reduced resulting in a lower fluorescence signal. The cAMP phosphodiester is not bound by the detection system.\nThe results were calculated as the molar concentrations resulting in 50% inhibition of the substrate cleavage compared to controls samples, and are expressed as a range of IC50 (nM).", "data": [{"smiles": "CCn1nc(CCCOC(=O)c2ccc(S(=O)(=O)NC)cc2)c2c1C(=O)NCC1(CCOCC1)C2", "note": "[Example 1, 3-(1-Ethyl-8-oxo-spiro[6,7-dihydro-4H-pyrazolo[3,4-c]azepine-5,4′-tetrahydropyran]-3-yl)propyl 4-(methylsulfamoyl)benzoate]", "values": [{"measurement": "IC50", "value": "< 100", "unit": "nM"}]}, {"smiles": "CCn1nc(CCCOC(=O)c2ccc(S(=O)(=O)N(C)C)cc2)c2c1C(=O)NCC1(CCOCC1)C2", "note": "[Example 2, 3-(1-Ethyl-8-oxo-spiro[6,7-dihydro-4H-pyrazolo[3,4-c]azepine-5,4′-tetrahydropyran]-3-yl)propyl 4-(dimethylsulfamoyl)benzoate]", "values": [{"measurement": "IC50", "value": "< 100", "unit": "nM"}]}, {"smiles": "CCn1nc(CCCOC(=O)c2ccc(S(C)(=O)=O)cc2)c2c1C(=O)NCC1(CCOCC1)C2", "note": "[Example 3, 3-(1-Ethyl-8-oxo-spiro[6,7-dihydro-4H-pyrazolo[3,4-c]azepine-5,4′-tetrahydropyran]-3-yl)propyl 4-methylsulfonylbenzoate]", "values": [{"measurement": "IC50", "value": "< 100", "unit": "nM"}]}, {"smiles": "CCn1nc(CCCOC(=O)C(C)C)c2c1C(=O)NCC1(CCOCC1)C2", "note": "[Example 4, 3-(1-ethyl-8-oxo-spiro[6,7-dihydro-4H-pyrazolo[3,4-c]azepine-5,4′-tetrahydropyran]-3-yl)propyl 2-methylpropanoate]", "values": [{"measurement": "IC50", "value": "< 100", "unit": "nM"}]}, {"smiles": "CCn1nc(CCCOC(=O)C2CCCC2)c2c1C(=O)NCC1(CCOCC1)C2", "note": "[Example 5, 3-(1-ethyl-8-oxo-spiro[6,7-dihydro-4H-pyrazolo[3,4-c]azepine-5,4′-tetrahydropyran]-3-yl)propyl cyclopentanecarboxylate]", "values": [{"measurement": "IC50", "value": "< 100", "unit": "nM"}]}, {"smiles": "CCC(CC)C(=O)OCCCc1nn(CC)c2c1CC1(CCOCC1)CNC2=O", "note": "[Example 6, 3-(1-ethyl-8-oxo-spiro[6,7-dihydro-4H-pyrazolo[3,4-c]azepine-5,4′-tetrahydropyran]-3-yl)propyl 2-ethylbutanoate]", "values": [{"measurement": "IC50", "value": "< 100", "unit": "nM"}]}, {"smiles": "CCn1nc(CCCOC(=O)c2ccccc2)c2c1C(=O)NCC1(CCOCC1)C2", "note": "[Example 7, 3-(1-ethyl-8-oxo-spiro[6,7-dihydro-4H-pyrazolo[3,4-c]azepine-5,4′-tetrahydropyran]-3-yl)propyl benzoate]", "values": [{"measurement": "IC50", "value": "< 100", "unit": "nM"}]}, {"smiles": "CCn1nc(CCCOC(=O)c2ccc(C)cc2)c2c1C(=O)NCC1(CCOCC1)C2", "note": "[Example 8, 3-(1-ethyl-8-oxo-spiro[6,7-dihydro-4H-pyrazolo[3,4-c]azepine-5,4′-tetrahydropyran]-3-yl)propyl 4-methylbenzoate]", "values": [{"measurement": "IC50", "value": "< 100", "unit": "nM"}]}, {"smiles": "CCn1nc(CCCOC(=O)c2cccc(F)c2)c2c1C(=O)NCC1(CCOCC1)C2", "note": "[Example 9, 3-(1-ethyl-8-oxo-spiro[6,7-dihydro-4H-pyrazolo[3,4-c]azepine-5,4′-tetrahydropyran]-3-yl)propyl 3-fluorobenzoate]", "values": [{"measurement": "IC50", "value": "< 100", "unit": "nM"}]}, {"smiles": "CCn1nc(CCCOC(=O)c2ccc(F)cc2)c2c1C(=O)NCC1(CCOCC1)C2", "note": "[Example 10, 3-(1-ethyl-8-oxo-spiro[6,7-dihydro-4H-pyrazolo[3,4-c]azepine-5,4′-tetrahydropyran]-3-yl)propyl 4-fluorobenzoate]", "values": [{"measurement": "IC50", "value": "< 100", "unit": "nM"}]}, {"smiles": "CCn1nc(CCCOC(=O)c2cccc(C#N)c2)c2c1C(=O)NCC1(CCOCC1)C2", "note": "[Example 11, 3-(1-ethyl-8-oxo-spiro[6,7-dihydro-4H-pyrazolo[3,4-c]azepine-5,4′-tetrahydropyran]-3-yl) propyl 3-cyanobenzoate]", "values": [{"measurement": "IC50", "value": "< 100", "unit": "nM"}]}, {"smiles": "CCn1nc(CCCOC(=O)c2ccc(C#N)cc2)c2c1C(=O)NCC1(CCOCC1)C2", "note": "[Example 12, 3-(1-ethyl-8-oxo-spiro[6,7-dihydro-4H-pyrazolo[3,4-c]azepine-5,4′-tetrahydropyran]-3-yl) propyl 4-cyanobenzoate]", "values": [{"measurement": "IC50", "value": "< 100", "unit": "nM"}]}, {"smiles": "CCn1nc(CCCOC(=O)c2ccc(C)c(C)c2)c2c1C(=O)NCC1(CCOCC1)C2", "note": "[Example 13, 3-(1-ethyl-8-oxo-spiro[6,7-dihydro-4H-pyrazolo[3,4-c]azepine-5,4′-tetrahydropyran]-3-yl) propyl 3,4-dimethylbenzoate]", "values": [{"measurement": "IC50", "value": "< 100", "unit": "nM"}]}, {"smiles": "CCn1nc(CCCOC(=O)c2ccc(C)cc2C)c2c1C(=O)NCC1(CCOCC1)C2", "note": "[Example 14, 3-(1-ethyl-8-oxo-spiro[6,7-dihydro-4H-pyrazolo[3,4-c]azepine-5,4′-tetrahydropyran]-3-yl)propyl 2,4-dimethylbenzoate]", "values": [{"measurement": "IC50", "value": "< 100", "unit": "nM"}]}, {"smiles": "CCc1ccc(C(=O)OCCCc2nn(CC)c3c2CC2(CCOCC2)CNC3=O)cc1", "note": "[Example 15, 3-(1-ethyl-8-oxo-spiro[6,7-dihydro-4H-pyrazolo[3,4-c]azepine-5,4′-tetrahydropyran]-3-yl)propyl 4-ethylbenzoate]", "values": [{"measurement": "IC50", "value": "< 100", "unit": "nM"}]}, {"smiles": "CCn1nc(CCCOC(=O)c2ccc(OC)cc2)c2c1C(=O)NCC1(CCOCC1)C2", "note": "[Example 16, 3-(1-ethyl-8-oxo-spiro[6,7-dihydro-4H-pyrazolo[3,4-c]azepine-5,4′-tetrahydropyran]-3-yl)propyl 4-methoxybenzoate]", "values": [{"measurement": "IC50", "value": "< 100", "unit": "nM"}]}, {"smiles": "CCn1nc(CCCOC(=O)c2cccc(OC)c2)c2c1C(=O)NCC1(CCOCC1)C2", "note": "[Example 17, 3-(1-ethyl-8-oxo-spiro[6,7-dihydro-4H-pyrazolo[3,4-c]azepine-5,4′-tetrahydropyran]-3-yl)propyl 3-methoxybenzoate]", "values": [{"measurement": "IC50", "value": "< 100", "unit": "nM"}]}, {"smiles": "CCn1nc(CCCOC(=O)c2ccc(C)cc2F)c2c1C(=O)NCC1(CCOCC1)C2", "note": "[Example 18, 3-(1-ethyl-8-oxo-spiro[6,7-dihydro-4H-pyrazolo[3,4-c]azepine-5,4′-tetrahydropyran]-3-yl)propyl 2-fluoro-4-methyl-benzoate]", "values": [{"measurement": "IC50", "value": "< 100", "unit": "nM"}]}, {"smiles": "CCn1nc(CCCOC(=O)c2ccc(F)cc2C)c2c1C(=O)NCC1(CCOCC1)C2", "note": "[Example 19, 3-(1-ethyl-8-oxo-spiro[6,7-dihydro-4H-pyrazolo[3,4-c]azepine-5,4′-tetrahydropyran]-3-yl)propyl 4-fluoro-2-methyl-benzoate]", "values": [{"measurement": "IC50", "value": "< 100", "unit": "nM"}]}, {"smiles": "CCn1nc(CCCOC(=O)c2cc(F)ccc2C)c2c1C(=O)NCC1(CCOCC1)C2", "note": "[Example 20, 3-(1-ethyl-8-oxo-spiro[6,7-dihydro-4H-pyrazolo[3,4-c]azepine-5,4′-tetrahydropyran]-3-yl)propyl 5-fluoro-2-methyl-benzoate]", "values": [{"measurement": "IC50", "value": "< 100", "unit": "nM"}]}, {"smiles": "CCn1nc(CCCOC(=O)c2cccc(F)c2C)c2c1C(=O)NCC1(CCOCC1)C2", "note": "[Example 21, 3-(1-ethyl-8-oxo-spiro[6,7-dihydro-4H-pyrazolo[3,4-c]azepine-5,4′-tetrahydropyran]-3-yl)propyl 3-fluoro-2-methyl-benzoate]", "values": [{"measurement": "IC50", "value": "< 100", "unit": "nM"}]}, {"smiles": "CCn1nc(CCCOC(=O)c2ccc(Cl)cc2)c2c1C(=O)NCC1(CCOCC1)C2", "note": "[Example 22, 3-(1-ethyl-8-oxo-spiro[6,7-dihydro-4H-pyrazolo[3,4-c]azepine-5,4′-tetrahydropyran]-3-yl)propyl 4-chlorobenzoate]", "values": [{"measurement": "IC50", "value": "< 100", "unit": "nM"}]}, {"smiles": "CCn1nc(CCCOC(=O)c2ccc(F)c(F)c2)c2c1C(=O)NCC1(CCOCC1)C2", "note": "[Example 23, 3-(1-ethyl-8-oxo-spiro[6,7-dihydro-4H-pyrazolo[3,4-c]azepine-5,4′-tetrahydropyran]-3-yl)propyl 3,4-difluorobenzoate]", "values": [{"measurement": "IC50", "value": "< 100", "unit": "nM"}]}, {"smiles": "CCn1nc(CCCOC(=O)c2cccc(F)c2F)c2c1C(=O)NCC1(CCOCC1)C2", "note": "[Example 24, 3-(1-ethyl-8-oxo-spiro[6,7-dihydro-4H-pyrazolo[3,4-c]azepine-5,4′-tetrahydropyran]-3-yl)propyl 2,3-difluorobenzoate]", "values": [{"measurement": "IC50", "value": "< 100", "unit": "nM"}]}, {"smiles": "CCn1nc(CCCOC(=O)c2cc(F)ccc2F)c2c1C(=O)NCC1(CCOCC1)C2", "note": "[Example 25, 3-(1-ethyl-8-oxo-spiro[6,7-dihydro-4H-pyrazolo[3,4-c]azepine-5,4′-tetrahydropyran]-3-yl)propyl 2,5-difluorobenzoate]", "values": [{"measurement": "IC50", "value": "< 100", "unit": "nM"}]}, {"smiles": "CCn1nc(CCCOC(=O)c2c(F)cccc2F)c2c1C(=O)NCC1(CCOCC1)C2", "note": "[Example 26, 3-(1-ethyl-8-oxo-spiro[6,7-dihydro-4H-pyrazolo[3,4-c]azepine-5,4′-tetrahydropyran]-3-yl)propyl 2,6-difluorobenzoate]", "values": [{"measurement": "IC50", "value": "< 100", "unit": "nM"}]}, {"smiles": "CCn1nc(CCCOC(=O)c2ccc(C(C)=O)cc2)c2c1C(=O)NCC1(CCOCC1)C2", "note": "[Example 27, 3-(1-ethyl-8-oxo-spiro[6,7-dihydro-4H-pyrazolo[3,4-c]azepine-5,4′-tetrahydropyran]-3-yl)propyl 4-acetylbenzoate]", "values": [{"measurement": "IC50", "value": "< 100", "unit": "nM"}]}, {"smiles": "CCn1nc(CCCOC(=O)c2cccc(C(C)=O)c2)c2c1C(=O)NCC1(CCOCC1)C2", "note": "[Example 28, 3-(1-ethyl-8-oxo-spiro[6,7-dihydro-4H-pyrazolo[3,4-c]azepine-5,4′-tetrahydropyran]-3-yl)propyl 3-acetylbenzoate]", "values": [{"measurement": "IC50", "value": "< 100", "unit": "nM"}]}, {"smiles": "CCn1nc(CCCOC(=O)c2cc(F)cc(C#N)c2)c2c1C(=O)NCC1(CCOCC1)C2", "note": "[Example 29, 3-(1-ethyl-8-oxo-spiro[6,7-dihydro-4H-pyrazolo[3,4-c]azepine-5,4′-tetrahydropyran]-3-yl)propyl 3-cyano-5-fluoro-benzoate]", "values": [{"measurement": "IC50", "value": "< 100", "unit": "nM"}]}, {"smiles": "CCn1nc(CCCOC(=O)c2ccc(F)c(C#N)c2)c2c1C(=O)NCC1(CCOCC1)C2", "note": "[Example 30, 3-(1-ethyl-8-oxo-spiro[6,7-dihydro-4H-pyrazolo[3,4-c]azepine-5,4′-tetrahydropyran]-3-yl)propyl 3-cyano-4-fluoro-benzoate]", "values": [{"measurement": "IC50", "value": "< 100", "unit": "nM"}]}, {"smiles": "CCn1nc(CCCOC(=O)c2cc(C#N)ccc2F)c2c1C(=O)NCC1(CCOCC1)C2", "note": "[Example 31, 3-(1-ethyl-8-oxo-spiro[6,7-dihydro-4H-pyrazolo[3,4-c]azepine-5,4′-tetrahydropyran]-3-yl)propyl 5-cyano-2-fluoro-benzoate]", "values": [{"measurement": "IC50", "value": "< 100", "unit": "nM"}]}, {"smiles": "CCn1nc(CCCOC(=O)c2ccc(C#N)c(F)c2)c2c1C(=O)NCC1(CCOCC1)C2", "note": "[Example 32, 3-(1-ethyl-8-oxo-spiro[6,7-dihydro-4H-pyrazolo[3,4-c]azepine-5,4′-tetrahydropyran]-3-yl)propyl 4-cyano-3-fluoro-benzoate]", "values": [{"measurement": "IC50", "value": "< 100", "unit": "nM"}]}]}
